Target: T1, human HSD17β13 (stable HEK293T cell line overexpressing human HSD17β13) (Homo sapiens, UniProt Q7Z5P4)
T1 construct: expressed in transfected cells
T1 sequence (Q7Z5P4 20-300): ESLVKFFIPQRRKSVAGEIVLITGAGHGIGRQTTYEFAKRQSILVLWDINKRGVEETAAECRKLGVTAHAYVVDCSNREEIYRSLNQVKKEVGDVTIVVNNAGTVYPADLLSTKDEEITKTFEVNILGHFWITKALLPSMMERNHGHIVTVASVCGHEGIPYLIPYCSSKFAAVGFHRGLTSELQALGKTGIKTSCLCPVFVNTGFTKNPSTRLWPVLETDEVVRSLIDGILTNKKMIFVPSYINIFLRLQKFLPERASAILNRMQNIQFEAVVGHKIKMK
Experiment: HSD17β13 inhibitor cell-based screening assay (conversion of estradiol-d2 to estrone-d2 by RF-MS)
Settings: conversion of estradiol-d2 to estrone-d2 after 24 hours
Experimental: The purpose of this cell-based assay is to determine the cellular efficacy (IC50) of HSD17β13 inhibitors in a stable HEK293 T cell line overexpressing human HSD17β13. The assay measures by Rapid Fire mass-spectrometry (RF-MS) the conversion of estradiol-d2 to estrone-d2. Cytotoxicity was also assessed via luminescent signal generated by the ATPlite viability assay reagent. To screen compounds for HSD17013 inhibition, black 384-well plates were seeded with 1000× concentration of compounds in a 9-point 1:3 dilution curve (final top concentration of 10 μM) as well as 1000× concentration of 17β-estradiol-d2 (5 μM final concentration) added to all wells. HEK293T cells stably overexpressing human HSD17013 and the parent HEK293T cell lines were then seeded in the plates on top of the compounds and substrate in MEM media containing 1% charcoal/dextran-treated FBS. Supernatant is collected and immediately frozen after 24 hours of incubation, and conversion of estradiol-d2 to estrone-d2 is measured at Pure Honey by RF-MS. The remaining media in the plate was removed from the wells and replaced with ATPlite viability assay reagent. Luminescent signal from the ATPlite reagent was measured on the Envision plate reader. 10 μL of 10 mM compounds stocks (1000×) dissolved in DMSO were pipetted into the appropriate wells on the 384 LDV plate (Labcyte; cat. no.: LP-0200) and the appropriate volumes of DMSO solvent were included onto an intermediate plate to further dilute the compound stocks to complete the 9-pt dose curve (final top concentration of 10 μM). 10 μL per well of 5 mM estradiol-d2 (1000×) (Cayman; item no.: 9002846) (5 μM final concentration) dissolved in DMSO was seeded into the appropriate number of wells on the same source plate as the compounds. The Echo 650 (Labcyte) was used for compound dilutions and dispensing both the compounds and the substrate onto a dry 384-well black assay plate (Falcon/Corning; cat. no.:353962). Afterwards, cells were immediately counted and seeded onto the plate. Cells were cultured for expansion in EMEM (ATCC; cat. no.: 30-2003)+10% FBS (Hyclone; cat. no.: SH3007003)+1×PenStrep (Gibco; cat. no.: 15140-122). All media for stable cell line overexpressing HSD17013 also included […] zeocin (Invitrogen; cat. no.: 46-0509) for selection. To prepare cells for seeding into the 384-well assay plate, cells were trypsinized for 3 minutes in the incubator. The Trypsin-EDTA (0.25%) (Gibco; cat. no.: 25200056) was neutralized with EMEM complete culture medium warmed to 37° C. Cells were then centrifugated at 300×g for 5 minutes at room temperature. The cell pellet was resuspended in phenol red-free MEM (Gibco; cat. no.: 51200-038)+1% charcoal/dextran-treated FBS (Hyclone; cat. no.: SH3006803) and 1×PenStrep warmed to 37° C. Cells were then counted using the TC20 automated cell-counter (Bio-Rad) and disposable duel chamber counting slides (Bio-Rad; cat. no.: 1450016) for a cell density of 1.5E5 cells/mL to then seed into the assay plate at 7.5E3 cells/well with 50 μL of media per well. Prior to the 24-hour time point, a solution of 1% formic acid (10×) (Honeywell; cat. no.: 94318) in MEM phenol red-free MEM+1% charcoal/dextran-treated FBS and 1×PenStrep was made. ATPlite luminescent ATP detection reagent (PerkinElmer; cat. no.: 6016739) was prepared according to the manufacturer's instructions. A new 384-well Falcon plate (collection plate) was seeded with 2 μL per well of 10× formic acid and then 18 μL of cell supernatant was added onto the formic acid, resulting in a 20 μL per well solution of 0.1% formic acid (1×) in supernatant. The plate of collected supernatant was immediately frozen on dry ice before being stored at −80° C. The collection plate was shipped to Momentum Biotechnologies for analysis. The remaining supernatant in the assay plate was discarded and 25 μL of ATPlite reagent was added to each well. […]

SMILES | IC50
CS(=O)(=O)c1cnc(-c2nc3sc4c(O)c(Cl)ccc4c3c(=O)n2Cc2cc(C(F)(F)F)no2)c(C2CC2)c1 [Example 112, 7-chloro-2-(3-cyclopropyl-5-(methylsulfonyl)pyridin-2-yl)-8-hydroxy-3-((3-(trifluoromethyl)isoxazol-5-yl)methyl)benzo[4,5]thieno[2,3-d]pyrimidin-4(3H)-one] | < 100 nM
N#Cc1ccc(-c2nc3sc4c(O)c(Cl)ccc4c3c(=O)n2Cc2ccc(C(F)(F)F)nc2)c(C2CC2)c1 [Example 113, 4-(7-chloro-8-hydroxy-4-oxo-3-((6-(trifluoromethyl)pyridin-3-yl)methyl)-3,4-dihydrobenzo[4,5]thieno[2,3-d]pyrimidin-2-yl)-3-cyclopropylbenzonitrile] | < 100 nM
N#Cc1ccc(-c2nc3sc4c(O)c(Cl)ccc4c3c(=O)n2Cc2cnc(C(F)(F)F)nc2)c(C2CC2)c1 [Example 114] | < 100 nM
N#Cc1cnc(-c2nc3sc4c(O)c(Cl)ccc4c3c(=O)n2Cc2cc(C(F)(F)F)no2)c(C2CC2)c1 [Example 115] | < 100 nM
O=c1c2c(nc(-c3ncc(C(F)F)cc3C3CC3)n1Cc1cnc(C(F)(F)F)nc1)sc1c(O)c(Cl)ccc12 [Example 116, 7-chloro-2-(3-cyclopropyl-5-(difluoromethyl)pyridin-2-yl)-8-hydroxy-3-((2-(trifluoromethyl)pyrimidin-5-yl)methyl)benzo[4,5]thieno[2,3-d]pyrimidin-4(3H)-one] | < 100 nM
COc1cc(-c2nc3sc4c(O)c(Cl)ccc4c3c(=O)n2Cc2cnco2)c(C2CC2)cc1OC [Example 118] | 100 to 500 nM
COc1ccc(-c2nc3sc4c(O)c(Cl)ccc4c3c(=O)n2Cc2cnco2)c(C2CCCC2)c1 [Example 121] | 100 to 500 nM
COc1ccc(-c2nc3sc4c(O)c(Cl)ccc4c3c(=O)n2Cc2cnco2)c(C)c1 [Example 124] | 100 to 500 nM
C#CCn1c(-c2ccc(OC)cc2C2CC2)nc2sc3c(O)c(Cl)ccc3c2c1=O [Example 126] | 100 to 500 nM
CCn1c(=O)c(C)cn(CCCn2c(-c3ccc(OC)cc3C3CC3)nc3sc4c(O)c(Cl)ccc4c3c2=O)c1=O [Example 127] | < 100 nM
COc1ccc(-c2nc3sc4c(O)c(Cl)ccc4c3c(=O)n2Cc2cnco2)c(C(C)(C)C)c1 [Example 128] | 500 to 1000 nM
COc1ccc(-c2nc3sc4c(O)c(Cl)ccc4c3c(=O)n2Cc2cn(C(F)F)nn2)c(C2CC2)c1 [Example 129] | < 100 nM
O=c1c2c(nc(-c3c(C4CC4)ccc(C(F)(F)F)c3F)n1Cc1cnco1)sc1c(O)c(Cl)ccc12 [Example 134] | < 100 nM
O=c1c2c(nc(-c3cc(C(F)(F)F)ccc3C3CC3)n1Cc1cnco1)sc1c(O)c(Cl)ccc12 [Example 136] | < 100 nM
O=c1c2c(nc(-c3cccc(C(F)(F)F)c3C3CC3)n1Cc1cnco1)sc1c(O)c(Cl)ccc12 [Example 139] | < 100 nM
O=c1c2c(nc(-c3ccc4cc[nH]c4c3C3CC3)n1Cc1cnco1)sc1c(O)c(Cl)ccc12 [Example 140] | < 100 nM
O=c1c2c(nc(-c3cc(F)c(C(F)F)cc3C3CC3)n1Cc1cnco1)sc1c(O)c(Cl)ccc12 [Example 141] | < 100 nM
Cn1ncc2cc(-c3nc4sc5c(O)c(Cl)ccc5c4c(=O)n3Cc3cnco3)c(C3CC3)cc21 [Example 142] | < 100 nM
O=c1c2c(nc(-c3ccc4ccccc4c3C3CC3)n1Cc1cnco1)sc1c(O)c(Cl)ccc12 [Example 145] | < 100 nM
COc1cccc(-c2nc3sc4c(O)c(Cl)ccc4c3c(=O)n2Cc2cnco2)c1C1CC1 [Example 146] | < 100 nM
CCn1c(=O)c(C)cn(CCn2c(-c3ccc(OC)cc3C3CC3)nc3sc4c(O)c(Cl)ccc4c3c2=O)c1=O [Example 150] | 500 to 1000 nM
COc1ccc(-c2nc3sc4c(O)c(Cl)ccc4c3c(=O)n2Cc2ccncc2)c(C2CC2)c1 [Example 151] | < 100 nM

SMILES | IC50
COc1ccc(-c2nc3sc4c(O)c(Cl)ccc4c3c(=O)n2Cc2cccnc2)c(C2CC2)c1 [Example 152] | < 100 nM
COc1ccc(-c2nc3sc4c(O)c(Cl)ccc4c3c(=O)n2Cc2ccc(C(F)(F)F)nc2)c(C2CC2)c1 [Example 153] | < 100 nM
COc1ccc(-c2nc3sc4c(O)c(Cl)ccc4c3c(=O)n2Cc2cncc(C(F)(F)F)c2)c(C2CC2)c1 [Example 154] | < 100 nM
COc1ccc(-c2nc3sc4c(O)c(Cl)ccc4c3c(=O)n2Cc2ccnc(C(F)(F)F)c2)c(C2CC2)c1 [Example 155] | < 100 nM
COc1ccc(-c2nc3sc4c(O)c(Cl)ccc4c3c(=O)n2Cc2ccnc(OC)c2)c(C2CC2)c1 [Example 156] | < 100 nM
COc1ccc(C2=Nc3sc4c(O)c(Cl)ccc4c3C(=O)C2Cc2cc[nH]c(=O)c2)c(C2CC2)c1 (centres unmarked) [Example 157] | 100 to 500 nM
O=c1c2c(nc(-c3sc4ccccc4c3C3CC3)n1Cc1cnco1)sc1c(O)c(Cl)ccc12 [Example 158] | < 100 nM
O=c1c2c(nc(-c3ccc(C(F)F)cc3C3CC3)n1Cc1cnco1)sc1c(O)c(Cl)ccc12 [Example 159] | < 100 nM
COc1ccc(-c2nc3sc4c(O)c(Cl)ccc4c3c(=O)n2Cc2ccc(OC)nc2)c(C2CC2)c1 [Example 160] | < 100 nM
COc1ccc(C2=Nc3sc4c(O)c(Cl)ccc4c3C(=O)C2Cc2ccc(=O)[nH]c2)c(C2CC2)c1 (centres unmarked) [Example 161] | < 100 nM
O=c1c2c(nc(-c3cc(F)c(F)cc3C3CC3)n1Cc1ccc(C(F)(F)F)nc1)sc1c(O)c(Cl)ccc12 [Example 162] | < 100 nM
O=c1c2c(nc(-c3cc(F)c(F)cc3C3CC3)n1Cc1cccnc1)sc1c(O)c(Cl)ccc12 [Example 163] | < 100 nM
Cn1ncc2cc(-c3nc4sc5c(O)c(Cl)ccc5c4c(=O)n3Cc3cc(C(F)(F)F)no3)c(C3CC3)cc21 [Example 164] | < 100 nM
O=c1c2c(nc(-c3cc(F)c(F)cc3C3CC3)n1Cc1cc(Br)no1)sc1c(O)c(Cl)ccc12 [Example 165] | < 100 nM
CS(=O)(=O)c1ccc(-c2nc3sc4c(O)c(Cl)ccc4c3c(=O)n2Cc2cccnc2)c(C2CC2)c1 [Example 166] | < 100 nM
Cn1ccc(Cn2c(-c3cc(F)c(F)cc3C3CC3)nc3sc4c(O)c(Cl)ccc4c3c2=O)cc1=O [Example 167] | < 100 nM
COc1ccc(Cn2c(-c3cc(F)c(F)cc3C3CC3)nc3sc4c(O)c(Cl)ccc4c3c2=O)cn1 [Example 168] | < 100 nM
N#Cc1ccc(-c2nc3sc4c(O)c(Cl)ccc4c3c(=O)n2Cc2cccnc2)c(C2CC2)c1 [Example 170] | < 100 nM
N#Cc1ccc(Cn2c(-c3cc(F)c(F)cc3C3CC3)nc3sc4c(O)c(Cl)ccc4c3c2=O)cn1 [Example 172] | < 100 nM
O=c1c2c(nc(-c3cnc(C(F)(F)F)cc3C3CC3)n1Cc1cc(C(F)(F)F)no1)sc1c(O)c(Cl)ccc12 [Example 173] | < 100 nM
O=c1c2c(nc(-c3ccc(C(F)F)cc3C3CC3)n1Cc1cnc(C(F)(F)F)nc1)sc1c(O)c(Cl)ccc12 [Example 177] | < 100 nM
O=c1c2c(nc(-c3cnc(C(F)(F)F)cc3C3CC3)n1Cc1cnc(C(F)(F)F)nc1)sc1c(O)c(Cl)ccc12 [Example 178] | < 100 nM
